Measured values from PubChem BioAssay AID1963875 (Molecular Pharmacology Branch, DTP, NCI, 2024).

System: KRAS-mutant PDC complex spheroid viability
Assay: Anticancer human tumor 186277-243-T-J2-PDC patient-derived colon adenocarcinoma cell line growth inhibition [KRAS2]
Settings: for IC50: curve of first compound; for viability, T/C: stronger effect = lower value
In short: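 KRAS-mutant tumor cells were grown as spheroids with HUVEC endothelial cells and human MSCs as stroma. Targeted agents were tested alone and with KRAS pathway inhibitors. Doses started at or near clinical Cmax, or 10 microM, descending half-log.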

[1] = second compound 0.1 µM, first compound 0.000316 µM
[2] = second compound 0.1 µM, first compound 0.001 µM
[3] = second compound 0.1 µM, first compound 0.00316 µM
[4] = second compound 0.1 µM, first compound 0.01 µM
[5] = second compound 0.1 µM, first compound 0.0316 µM
[6] = second compound 0.316 µM, first compound 0.000316 µM
[7] = second compound 0.316 µM, first compound 0.001 µM
[8] = second compound 0.316 µM, first compound 0.00316 µM
[9] = second compound 0.316 µM, first compound 0.01 µM
[10] = second compound 0.316 µM, first compound 0.0316 µM
[11] = second compound 1 µM, first compound 0.000316 µM
[12] = second compound 1 µM, first compound 0.001 µM
[13] = second compound 1 µM, first compound 0.00316 µM
[14] = second compound 1 µM, first compound 0.01 µM
[15] = second compound 1 µM, first compound 0.0316 µM
[16] = second compound 3.16 µM, first compound 0.000316 µM
[17] = second compound 3.16 µM, first compound 0.001 µM
[18] = second compound 3.16 µM, first compound 0.00316 µM
[19] = second compound 3.16 µM, first compound 0.01 µM
[20] = second compound 3.16 µM, first compound 0.0316 µM
[21] = second compound 10 µM, first compound 0.000316 µM
[22] = second compound 10 µM, first compound 0.001 µM
[23] = second compound 10 µM, first compound 0.00316 µM
[24] = second compound 10 µM, first compound 0.01 µM
[25] = second compound 10 µM, first compound 0.0316 µM
[26] = second compound 0.1 µM, first compound 0.1 µM
[27] = second compound 0.316 µM, first compound 0.1 µM
[28] = second compound 1 µM, first compound 0.1 µM
[29] = second compound 3.16 µM, first compound 0.1 µM
[30] = second compound 10 µM, first compound 0.1 µM
[31] = second compound 0.1 µM, first compound 0.316 µM
[32] = second compound 0.1 µM, first compound 1 µM
[33] = second compound 0.1 µM, first compound 3.16 µM
[34] = second compound 0.1 µM, first compound 10 µM
[35] = second compound 0.316 µM, first compound 0.316 µM
[36] = second compound 0.316 µM, first compound 1 µM
[37] = second compound 0.316 µM, first compound 3.16 µM
[38] = second compound 0.316 µM, first compound 10 µM
[39] = second compound 1 µM, first compound 0.316 µM
[40] = second compound 1 µM, first compound 1 µM
[41] = second compound 1 µM, first compound 3.16 µM
[42] = second compound 1 µM, first compound 10 µM
[43] = second compound 3.16 µM, first compound 0.316 µM
[44] = second compound 3.16 µM, first compound 1 µM
[45] = second compound 3.16 µM, first compound 3.16 µM
[46] = second compound 3.16 µM, first compound 10 µM
[47] = second compound 10 µM, first compound 0.316 µM
[48] = second compound 10 µM, first compound 1 µM
[49] = second compound 10 µM, first compound 3.16 µM
[50] = second compound 10 µM, first compound 10 µM
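Throughout, for viability, T/C: viability read after seven days of compound exposure; 100% = DMSO vehicle-treated spheroids so lower means less viable.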

Compound `CC(=O)Nc1cccc(-n2c(=O)n(C3CC3)c(=O)c3c(Nc4ccc(I)cc4F)n(C)c(=O)c(C)c32)c1` + COc1cc2nc(C)nc(NC(C)c3cc(N)cc(C(F)(F)F)c3)c2cc1OC1CCOC1 has an IC50 (second compound 0.1 µM) of 0.458 nM, an IC50 (second compound 0.316 µM) of 0.343 nM and an IC50 (second compound 1 µM) of 0.298 nM. For the same compound, the IC50 (second compound 3.16 µM) was 0.226 nM, the IC50 (second compound 10 µM) was under 0.1 nM and the viability, T/C (second compound 0.1 µM, first compound 0.0001 µM) was 116%. It also gave a viability, T/C [1] of 68.2%, a viability, T/C [2] of 11.4% and a viability, T/C [3] of 4.55%. The viability, T/C [4] was 1.94%, the viability, T/C [5] was 1.13% and the viability, T/C (second compound 0.316 µM, first compound 0.0001 µM) was 108%. It also gave a viability, T/C [6] of 53%, a viability, T/C [7] of 10.2% and a viability, T/C [8] of 3.15%. It also gave a viability, T/C [9] of 2.07%, a viability, T/C [10] of 1.01% and a viability, T/C (second compound 1 µM, first compound 0.0001 µM) of 118%. The viability, T/C [11] was 46.3%, the viability, T/C [12] was 8.75% and the viability, T/C [13] was 4.43%. It also gave a viability, T/C [14] of 1.55%, a viability, T/C [15] of 1.02% and a viability, T/C (second compound 3.16 µM, first compound 0.0001 µM) of 108%. The viability, T/C [16] was 26%, the viability, T/C [17] was 6.24% and the viability, T/C [18] was 2.83%. For the same compound, the viability, T/C [19] was 1.04%, the viability, T/C [20] was 0.82% and the viability, T/C (second compound 10 µM, first compound 0.0001 µM) was 13.9%. For the same compound, the viability, T/C [21] was 3.04%, the viability, T/C [22] was 1.39% and the viability, T/C [23] was 0.49%. For the same compound, the viability, T/C [24] was 0.21% and the viability, T/C [25] was 0.23%.
With `CC(C)n1nc(-c2ccc3oc(N)nc3c2)c2c(N)ncnc21` + COc1cc2nc(C)nc(NC(C)c3cc(N)cc(C(F)(F)F)c3)c2cc1OC1CCOC1 the IC50 (second compound 0.1 µM) was 7.67 nM, the IC50 (second compound 0.316 µM) was 6.38 nM and the IC50 (second compound 1 µM) was 15.4 nM. It also gave an IC50 (second compound 3.16 µM) of 17.3 nM, an IC50 (second compound 10 µM) of 5.8 nM and a viability, T/C [1] of 98.3%. For the same compound, the viability, T/C [2] was 96.3%, the viability, T/C [3] was 64.8% and the viability, T/C [4] was 47%. For the same compound, the viability, T/C [5] was 25.3%, the viability, T/C [26] was 17.3% and the viability, T/C [6] was 111%. For the same compound, the viability, T/C [7] was 93.6%, the viability, T/C [8] was 74.1% and the viability, T/C [9] was 34.8%. For the same compound, the viability, T/C [10] was 19.8%, the viability, T/C [27] was 17.2% and the viability, T/C [11] was 108%. It also gave a viability, T/C [12] of 103%, a viability, T/C [13] of 91.8% and a viability, T/C [14] of 62.9%. It also gave a viability, T/C [15] of 28.5%, a viability, T/C [28] of 13.7% and a viability, T/C [16] of 109%. For the same compound, the viability, T/C [17] was 103%, the viability, T/C [18] was 99.8% and the viability, T/C [19] was 69%. The viability, T/C [20] was 29%, the viability, T/C [29] was 16% and the viability, T/C [21] was 64.5%. The viability, T/C [22] was 64.3%, the viability, T/C [23] was 58.8% and the viability, T/C [24] was 41.9%. The viability, T/C [25] was 21.1% and the viability, T/C [30] was 8.37%.
Work on `COc1cc(Nc2ncc3c(n2)-c2ccc(Cl)cc2C(c2c(F)cccc2OC)=NC3)ccc1C(=O)O` + COc1cc2nc(C)nc(NC(C)c3cc(N)cc(C(F)(F)F)c3)c2cc1OC1CCOC1 yielded an IC50 (second compound 0.1 µM) of under 31.6 nM, an IC50 (second compound 0.316 µM) of under 31.6 nM and an IC50 (second compound 1 µM) of under 31.6 nM. It also gave an IC50 (second compound 3.16 µM) of under 31.6 nM, an IC50 (second compound 10 µM) of under 31.6 nM and a viability, T/C [5] of 30.3%. For the same compound, the viability, T/C [26] was 29%, the viability, T/C [31] was 26.4% and the viability, T/C [32] was 29.2%. The viability, T/C [33] was 38.8%, the viability, T/C [34] was 38.7% and the viability, T/C [10] was 26.8%. It also gave a viability, T/C [27] of 27.7%, a viability, T/C [35] of 26.1% and a viability, T/C [36] of 27.4%. For the same compound, the viability, T/C [37] was 33.7%, the viability, T/C [38] was 36.6% and the viability, T/C [15] was 26.8%. The viability, T/C [28] was 24.7%, the viability, T/C [39] was 23.5% and the viability, T/C [40] was 25.7%. For the same compound, the viability, T/C [41] was 31.3%, the viability, T/C [42] was 34.2% and the viability, T/C [20] was 22.2%. For the same compound, the viability, T/C [29] was 22.6%, the viability, T/C [43] was 22.1% and the viability, T/C [44] was 20.6%. The viability, T/C [45] was 24.3%, the viability, T/C [46] was 22.4% and the viability, T/C [25] was 14.1%. For the same compound, the viability, T/C [30] was 17.8%, the viability, T/C [47] was 10.2% and the viability, T/C [48] was 7.56%. The viability, T/C [49] was 14% and the viability, T/C [50] was 7.41%.
In the case of `COc1cc2nccc(Oc3ccc(NC(=O)C4(C(=O)Nc5ccc(F)cc5)CC4)cc3)c2cc1OC` + COc1cc2nc(C)nc(NC(C)c3cc(N)cc(C(F)(F)F)c3)c2cc1OC1CCOC1, the IC50 (second compound 0.1 µM) is reported as 882 nM, the IC50 (second compound 0.316 µM) is reported as 866 nM and the IC50 (second compound 1 µM) is reported as 779 nM. It also gave an IC50 (second compound 3.16 µM) of 726 nM, an IC50 (second compound 10 µM) of 187 nM and a viability, T/C [5] of 98.2%. It also gave a viability, T/C [26] of 112%, a viability, T/C [31] of 114% and a viability, T/C [32] of 12.5%. For the same compound, the viability, T/C [33] was 15.8%, the viability, T/C [34] was 101% and the viability, T/C [10] was 105%. For the same compound, the viability, T/C [27] was 102%, the viability, T/C [35] was 97.8% and the viability, T/C [36] was 13.9%. The viability, T/C [37] was 13.5%, the viability, T/C [38] was 102% and the viability, T/C [15] was 108%. The viability, T/C [28] was 108%, the viability, T/C [39] was 82.2% and the viability, T/C [40] was 11.3%. The viability, T/C [41] was 10.7%, the viability, T/C [42] was 101% and the viability, T/C [20] was 114%. The viability, T/C [29] was 114%, the viability, T/C [43] was 80.7% and the viability, T/C [44] was 9.28%. It also gave a viability, T/C [45] of 1.53%, a viability, T/C [46] of 104% and a viability, T/C [25] of 92.2%. For the same compound, the viability, T/C [30] was 66.9%, the viability, T/C [47] was 39.4% and the viability, T/C [48] was 1.55%. It also gave a viability, T/C [49] of 0.17% and a viability, T/C [50] of 89%.
